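Five compound concentrations were applied to cells in 96-well plates for 48 hours; endpoints were derived by simple linear interpolation of the resulting dose-response curve. GI50: concentration for 50% inhibition of growth. The concentration for full growth arrest is given as TGI.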
Tests used:
Assay in all cases: DTP human tumour cell line panel, 48 h
[1] = tested on: EKVX NSCLC
[2] = tested on: K-562 leukemia
[3] = tested on: NCI-H522 lung
[4] = tested on: ACHN renal
[5] = tested on: IGROV1 ovarian
[6] = tested on: NCI-H226 lung
[7] = tested on: RPMI-8226 leukemia
[8] = tested on: SK-MEL-5 melanoma
[9] = tested on: MDA-MB-231 breast
[10] = tested on: SF-539 CNS
[11] = tested on: U251 CNS
[12] = tested on: OVCAR-3 ovarian
[13] = tested on: 786-0 renal
[14] = tested on: MOLT-4 leukemia
[15] = tested on: UO-31 renal
[16] = tested on: SW-620 colon
[17] = tested on: A549 NSCLC
[18] = tested on: SR leukemia
[19] = tested on: SK-MEL-28 melanoma
[20] = tested on: SNB-19 CNS
[21] = tested on: LOX IMVI melanoma
[22] = tested on: HCT-116 colon
[23] = tested on: UACC-62 melanoma
[24] = tested on: CAKI-1 renal
[25] = tested on: SF-268 CNS
[26] = tested on: HL-60(TB) leukemia
[27] = tested on: OVCAR-5 ovarian
[28] = tested on: UACC-257 melanoma
[29] = tested on: DU-145 prostate
[30] = tested on: NCI-H23 lung
[31] = tested on: TK-10 renal
[32] = tested on: MCF7 breast
[33] = tested on: A498 renal
[34] = tested on: KM12 colon
[35] = tested on: T-47D breast
[36] = tested on: HOP-92 NSCLC
[37] = tested on: HOP-62 NSCLC
[38] = tested on: MDA-MB-435
[39] = tested on: PC-3 prostate
[40] = tested on: SK-MEL-2 melanoma
[41] = tested on: NCI/ADR-RES ovarian
[42] = tested on: NCI-H460 lung
[43] = tested on: HCC-2998 colon
[44] = tested on: COLO 205 colon
[45] = tested on: HCT-15 colon
[46] = tested on: OVCAR-8 ovarian
[47] = tested on: SF-295 CNS
[48] = tested on: SN12C renal
[49] = tested on: SNB-75 CNS
[50] = tested on: SK-OV-3 ovarian
[51] = tested on: HT29 colon
[52] = tested on: BT-549 breast
[53] = tested on: OVCAR-4 ovarian
[54] = tested on: M14 melanoma

## CS(=O)(=O)O[C@H]1C(=O)N(c2cc3c4ccccc4ccc3c3ccccc23)[C@@H]1c1ccccc1
[1]
  GI50: 342 nM
  TGI: > 100000 nM
[2]
  GI50: 731 nM
  TGI: > 100000 nM
[3]
  GI50: 1110 nM
  TGI: 5650 nM
[4]
  GI50: 332 nM
  TGI: > 100000 nM
[5]
  GI50: > 100000 nM
  TGI: > 100000 nM
[6]
  GI50: > 100000 nM
  TGI: > 100000 nM
[7]
  GI50: 844 nM
  TGI: > 23500 nM
[8]
  GI50: 766 nM
  TGI: > 33500 nM
[9]
  GI50: 836 nM
  TGI: > 100000 nM
[10]
  GI50: 710 nM
  TGI: 1760 nM
[11]
  GI50: 457 nM
  TGI: > 100000 nM
[12]
  GI50: 61.7 nM
  TGI: 278 nM
[13]
  GI50: 287 nM
[14]
  GI50: > 100000 nM
  TGI: > 100000 nM
[15]
  GI50: 3440 nM
  TGI: > 100000 nM
[16]
  GI50: 874 nM
  TGI: > 100000 nM
[17]
  GI50: 2180 nM
  TGI: > 100000 nM
[18]
  GI50: 355 nM
  TGI: > 100000 nM
[19]
  GI50: > 100000 nM
  TGI: > 100000 nM
[20]
  TGI: > 100000 nM
[21]
  GI50: 526 nM
  TGI: > 100000 nM
[22]
  GI50: 313 nM
  TGI: > 100000 nM
[23]
  GI50: 240 nM
  TGI: > 100000 nM
[24]
  GI50: 74.7 nM
  TGI: 830 nM
[25]
  GI50: 588 nM
  TGI: > 100000 nM
[26]
  GI50: 532 nM
  TGI: > 100000 nM
[27]
  GI50: 574 nM
[28]
  GI50: > 38100 nM
  TGI: > 100000 nM
[29]
  GI50: 819 nM
  TGI: > 100000 nM
[30]
  GI50: 753 nM
  TGI: > 100000 nM
[31]
  GI50: 616 nM
  TGI: > 86900 nM
[32]
  GI50: 4330 nM
  TGI: > 100000 nM
[33]
  GI50: 545 nM
  TGI: > 100000 nM
[34]
  GI50: 216 nM
  TGI: > 100000 nM
[35]
  GI50: > 100000 nM
  TGI: > 100000 nM
[36]
  TGI: > 100000 nM
[37]
  GI50: 388 nM
  TGI: > 100000 nM
[38]
  GI50: 23.2 nM
  TGI: 92.3 nM
[39]
  GI50: 561 nM
  TGI: > 100000 nM
[40]
  TGI: > 100000 nM
[41]
  GI50: 206 nM
  TGI: 940 nM
[42]
  GI50: 1590 nM
  TGI: > 100000 nM
[43]
  GI50: 439 nM
  TGI: 5640 nM
[44]
  GI50: 693 nM
  TGI: > 100000 nM
[45]
  GI50: 408 nM
  TGI: > 100000 nM
[46]
  TGI: > 100000 nM
[47]
  GI50: 99.5 nM
  TGI: 400 nM
[48]
  GI50: 567 nM
  TGI: > 100000 nM
[49]
  GI50: 656 nM
  TGI: > 100000 nM
[50]
  GI50: 2310 nM
  TGI: > 100000 nM
[51]
  GI50: 474 nM
  TGI: > 100000 nM
[52]
  GI50: 170 nM
  TGI: > 100000 nM
[53]
  GI50: > 100000 nM
  TGI: > 100000 nM
[54]
  GI50: 809 nM
  TGI: > 100000 nM
